Results reported in patent US9610294B2, “Methods and compositions for the treatment of fluid accumulation in and/or under the retina” (UNIVERSITE PARIS DESCARTES, priority 2010, dated 2017).
Entries after “also recorded” stand apart in the source; their conditions may differ.

Experiments:
AQP4 = AQP4 expression (real-time PCR, western blot) in rat RMG primary cultures and retinal explants; format: cell-based
Method: (§1) Rat RMG cells were obtained as described (deKozak, Y., Naud, M. C., Bellot, J., Faure, J. P., and Hicks, D. (1994) Differential tumor necrosis factor expression by resident retinal cells from experimental uveitis-susceptible and -resistant rat strains. J Neuroimmunol 55, 1-9). Briefly, rats at postnatal (PN) day 17 (when RMG cells are mature) were sacrificed and eyes enucleated. Intact eyeballs were maintained in DMEM overnight at room temperature in the dark, and then incubated 45 min with 2 mg/ml trypsin/collagenase I at 37° C. The neural retinas were separated from the lens and vitreous, cut into small fragments and plated in Petri dishes containing DMEM supplemented with 10% FCS, 100 units/ml penicillin, 100 µg/ml streptomycin, and 0.2% amphotericin B. Cultures were maintained at 37° C. in a humidified atmosphere containing 5% CO2. After 5 to 6 days, the cultures were washed extensively with medium so that only a strongly adherent flat cell population remained.
(§2) Müller cells were seeded in 6-well tissue culture plates (Becton Dickinson, Le Pont de Claix, France). Rat PN17 RMG cells were maintained in their initial Petri dishes. Sub confluent (80%) cells were incubated in media supplemented with 10% steroid-free (charcoal treated) FCS for 24 hrs. Corticosteroid (Sigma-Aldrich, Saint Quentin Fallavier, France) treatments were then applied respectively for a further 24 hrs: 10 nM aldosterone, 10 nM aldosterone plus 1).IM RU38486 (GR-specific antagonist), 10 nM aldosterone plus 1 µM RU26752 (MR-specific antagonist) or 1 µM dexamethasone. The steroids were previously dissolved in 2% steroid-free FCS media containing 0.1% ethanol. Control cells were treated with 0.1% ethanol in media.
(§3) After enucleation, rat retinas were isolated immediately under aseptic conditions and cut into 4 pieces. They were then transferred onto a Cyclopore 0.2).Im polycarbonate membrane (Whatman, Maidstone, England), and flatmounted with the vitreal side up. The support membranes were placed in 6-well tissue culture plates containing 2 ml DMEM supplemented with 10% steroid-free FCS, 1% penicillin-streptomycin and 0.1% amphotericin B. Explants were treated with corticosteroids as described for cultured cells. Similarly, the dose-dependent effect of aldosterone (0.1-100 nM) was analyzed on retinal explants in separate experiments.
(§4) Total RNA was isolated from the treated RMG cells and retinal explants using RNeasy Mini Kit (Qiagen, Courtaboeuf, France). First-strand cDNA was synthesized after DNase I (Qiagen) treatment using random primers (Invitrogen) and superscript II reverse transcriptase (Invitrogen). Transcript levels of ENaC-a, Kir4.1 and AQP4 were analyzed by real-time PCR performed in 7500 Real-Time PCR System (Applied Biosystems, Foster City, Calif., USA) with either TaqMan® (Applied Biosystems) or SYBR® Green (Invitrogen, Cergy Pontoise, France) detection. The 18S was used as internal control.
(§5) Retinal explants were homogenized in Np40 buffer in the presence of protease inhibitors. The protein concentration was determined by the Bradford method. Equal amounts of protein (12 .ug) were separated on Novex® 4%-12% Tris-Glycine gel (Invitrogen), transferred to nitrocellulose, and the blots were incubated with primary antibodies at 4° C. overnight. The membranes were washed, incubated with horse radish peroxidase conjugated goat anti-rabbit IgG (1:3000, Vector, AbCys, Paris, France) for 1 hr at room temperature, and developed using ECL Plus western blotting detection reagents (GE healthcare, Orsay, France). The j3-actin was used as internal control. The following primary antibodies were used: rabbit anti-alpha ENaC (1:500, Abcam, Cambridge, Mass., USA), rabbit anti-Kir4.1 (1:400, Alomone Labs, Jerusalem, Israel), rabbit anti-AQP4 (1:750, Millipore, St Quentin en Yvelines, France) and rabbit anti-j3-actin (1:1000, Abcam)

retina [1] = test: Intraocular injection in Brown Norway rats (gain of function mutation in the MR gene): CSCR-like retinal pathology; format: in vivo; conditions: FIGS. 1 and 2
retina [2] = test: Intravitreous aldosterone injection in rat eyes: retinal morphology and thickness; format: in vivo, Lewis rats
Method: All experiments were performed in accordance with the European Communities Council Directive 86/609/EEC and approved by local ethical committees. Adult female Lewis rats (8-12 weeks old, Janvier, Le Genest-Saint-Isle, France) were used for preparation of RMG primary cultures, for retinal organotypic cultures and for in vivo experiments. Rats were sacrificed by carbon dioxide inhalation.
Anesthesia of rats was induced by intramuscular injection of ketamine (100 mg/kg, Virbac, Carros, France) and chlorpromazine (0.65 mg/kg, LARGACTIL®, Sanofi Aventis, Livron sur Drome, France). Intravitreous injections were performed using microfine (300 μl) syringes with 30 G needles under topical anesthesia (tetracaine 1%, Aldrich, Lyon, France). Rat eyes were injected with 5 μl aldosterone diluted in 0.9% saline to obtain a concentration of 200 nM for injection, corresponding to a final concentration of 20 nM in the vitreous. Control rat eyes were injected with 5 μl saline. Twenty-four hrs after injection, rats were sacrificed. Eyes were then removed for retinal flat mounting, immunohistochemistry and morphological analysis respectively.
Enucleated eyes were fixed in 2.5% glutaraldehyde in cacodylate buffer (0.1 M, pH 7.4). After 30 min, eyes were dissected at the level of the limbus and lens removed. The posterior part was fixed for a further 5 hrs, dehydrated in a graded alcohol series (50%, 70%, 95% and 100%) and embedded in epoxy resin. Semi-thin sections (1 J.Im) were cut using an ultramicrotome (Reichert Ultracut E, Leica, Wetzlar, Germany), and stained with toluidine blue. The morphology was examined under a light microscope (DMRB, Leica). Retinal thickness was measured manually every 100 μm from the peripheral to the posterior pole. For analysis, the retina was divided into 3 zones: periphery, middle and posterior pole. In each zone, 3-4 individual measurements were performed in each section. Two to 6 sections were analyzed per rat (3 rats with aldosterone intravitreous injection and 3 with sham injection)

Kir4.1 = Kir4.1 expression (real-time PCR, western blot) in rat RMG primary cultures and retinal explants; format: cell-based
Method: as §1, §2, §3, §4, §5

[3] = dose-dependent effect, retinal explants
[4] = single intravitreous injection, 20 nM, 24 hrs later

C[C@]12CCC(=O)C=C1CC[C@@H]1[C@@H]2[C@@H](O)C[C@]2(C=O)[C@@H](C(=O)CO)CC[C@@H]12 [aldosterone]
AQP4 mRNA expression (AQP4; 24 hrs treatment, RMG primary cultures or retinal explants): increase
aquaporin 4 (AQP4) up-regulation (AQP4; aldosterone 24 hrs): 2.9 fold
aldosterone concentration at which increase in AQP4 mRNA is saturated (AQP4; [3]): 10 nM
expression of aquaporin 4 (AQP4) (AQP4; normal rat, 24 hours exposure, low aldosterone dose (1-10 nM)): enhances the expression
AQP4 expression at the protein level (AQP4; western blot): increases
retinal pathology after intraocular injection (retina [1]): develop a retinal pathology similar to CSCR; also recorded: vasodilation of choroid vessels, rupture of the junction between RPE cells, swallowing of the photoreceptor segments and sub retinal fluid accumulation; also recorded: develop a retinal pathology very close to CSCR
retinal swelling (increase compared to sham-injected eyes) (retina [2]; intravitreous injection, 20 nM final in the vitreous, 24 hrs): 24%
Retinal thickness compared to sham-injected eyes (retina [2]; [4]): significantly increased
retinal morphological changes on semi-thin sections (retina [2]; [4]): fluid accumulation in the entire retina
Kir4.1 expression (transcripts) (Kir4.1; 24 hrs treatment, rat RMG primary cultures and retinal explants): up-regulate
expression of potassium channel Kir4.1 (Kir4.1; aldosterone 24 hrs): 1.9 fold
aldosterone concentration at which increase in Kir4.1 transcripts is fully saturated (Kir4.1; [3]): 10 nM
Kir4.1 expression at the protein level (Kir4.1; western blot): up-regulated
